Laboratory results reported in patent publication US20200016136A1 (VIIV HEALTHCARE UK (NO. 5) LIMITED, priority 2017, published 2020).

Test system: NL-RLuc virus (recombinant NL4-3 HIV with Renilla Luciferase gene)
Assay: Inhibition of HIV replication (NL-RLuc virus in MT-2 cells, luciferase readout)
Type: cell-based, Human immunodeficiency virus (HIV)
Settings: MT2, 120 h
Method in brief: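 MT-2 cells infected with NL4-3-derived virus carrying Renilla luciferase in place of part of nef, grown 5 days with serial compound dilutions in RPMI 1640/10% FBS. Virus growth read as luciferase expression. EC50 from median effect equation, at least 2 experiments.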

Structure (SMILES)	EC50 [nM]
Cc1nc(C)c([C@H](OC(C)(C)C)C(=O)O)c(N2CCC(C)(C)CC2)c1-c1ccc2c(c1)CCN(c1ccnc(N3CCOCC3)n1)C2 [Example 57, (S)-2-(tert-Butoxy)-2-(4-(4,4-dimethylpiperidin-1-yl)-2,6-dimethyl-5-(2-(2-morpholinopyrimidin-4-yl)-1,2,3,4-tetrahydroisoquinolin-6-yl)pyridin-3-yl)acetic Acid]	0.5
CC1(C)CCN(c2c(-c3ccc4c(c3)CCN(c3ncnc5c3oc3ccccc35)C4)cnc(Cl)c2[C@H](OC(C)(C)C)C(=O)O)CC1 [Example 103, (S)-2-(5-(2-(Benzofuro[3,2-d]pyrimidin-4-yl)-1,2,3,4-tetrahydroisoquinolin-6-yl)-2-chloro-4-(4,4-dimethylpiperidin-1-yl)pyridin-3-yl)-2-(tert-butoxy)acetic Acid]	2
Cc1nc(C)c([C@H](OC(C)(C)C)C(=O)O)c(N2CCC(C)(C)CC2)c1-c1ccc2c(c1)CCN(c1cccc(N3CCOCC3)n1)C2 [Example 66, (S)-2-(tert-Butoxy)-2-(4-(4,4-dimethylpiperidin-1-yl)-2,6-dimethyl-5-(2-(6-morpholinopyridin-2-yl)-1,2,3,4-tetrahydroisoquinolin-6-yl)pyridin-3-yl)acetic Acid]	13
Cc1cc(F)ccc1CN1CCc2cc(-c3c(N)nc(Cl)c([C@H](OC(C)(C)C)C(=O)O)c3N3CCC(C)(C)CC3)ccc2C1 [Example 99, (S)-2-(6-Amino-2-chloro-4-(4,4-dimethylpiperidin-1-yl)-5-(2-(4-fluoro-2-methylbenzyl)-1,2,3,4-tetrahydroisoquinolin-6-yl)pyridin-3-yl)-2-(tert-butoxy)acetic Acid]	4
Cc1nc(C)c([C@H](OC(C)(C)C)C(=O)O)c(N2CCC(C)(C)CC2)c1-c1ccc2c(c1)CCN(c1ccnc(N3CCN(C)CC3)n1)C2 [Example 39, (2S)-2-(tert-Butoxy)-2-[4-(4,4-dimethylpiperidin-1-yl)-2,6-dimethyl-5-{2-[2-(4-methylpiperazin-1-yl)pyrimidin-4-yl]-1,2,3,4-tetrahydroisoquinolin-6-yl}pyridin-3-yl]acetic Acid]	5
Cc1cccc(Cl)c1CN1CCc2cc(-c3c(NCCCN(C)C)nc(C)c([C@H](OC(C)(C)C)C(=O)O)c3N3CCC(C)(C)CC3)ccc2C1 [Example 9, (S)-2-(tert-Butoxy)-2-(5-(2-(2-chloro-6-methylbenzyl)-1,2,3,4-tetrahydroisoquinolin-6-yl)-6-((3-(dimethylamino)propyl)amino)-4-(4,4-dimethylpiperidin-1-yl)-2-methylpyridin-3-yl)acetic Acid]	2
Cc1nc(C)c([C@H](OC(C)(C)C)C(=O)O)c(N2CCC(C)(C)CC2)c1-c1ccc2c(c1)CCN(c1nc(Cl)nc(N3CCOCC3)n1)C2 [Example 58, (S)-2-(tert-Butoxy)-2-(5-(2-(4-chloro-6-morpholino-1,3,5-triazin-2-yl)-1,2,3,4-tetrahydroisoquinolin-6-yl)-4-(4,4-dimethylpiperidin-1-yl)-2,6-dimethylpyridin-3-yl)acetic Acid]	8
Cc1nc(C)c([C@H](OC(C)(C)C)C(=O)O)c(N2CCC(C)(C)CC2)c1-c1ccc2c(c1)CCN(c1cc(N3C[C@@H](C)O[C@@H](C)C3)ncn1)C2 [Example 130, (S)-2-(tert-Butoxy)-2-(5-(2-(6-((2S,6R)-2,6-dimethylmorpholino)pyrimidin-4-yl)-1,2,3,4-tetrahydroisoquinolin-6-yl)-4-(4,4-dimethylpiperidin-1-yl)-2,6-dimethylpyridin-3-yl)acetic Acid]	5
Cc1nc(CO)c(-c2ccc3c(c2)CCN(c2nccc(-c4cccnc4)n2)C3)c(N2CCC(C)(C)CC2)c1[C@H](OC(C)(C)C)C(=O)O [Example 164, (S)-2-(tert-Butoxy)-2-(4-(4,4-dimethylpiperidin-1-yl)-6-(hydroxymethyl)-2-methyl-5-(2-(4-(pyridin-3-yl)pyrimidin-2-yl)-1,2,3,4-tetrahydroisoquinolin-6-yl)pyridin-3-yl)acetic Acid]	2
CC1(C)CCN(Cc2nc(Cl)c([C@H](OC(C)(C)C)C(=O)O)c(N3CCC(C)(C)CC3)c2-c2ccc3c(c2)CCN(c2ncnc4c2oc2ncccc24)C3)CC1 [Example 114, (S)-2-(tert-Butoxy)-2-(2-chloro-4-(4,4-dimethylpiperidin-1-yl)-6-((4,4-dimethylpiperidin-1-yl)methyl)-5-(2-(pyrido[3′,2′:4,5]furo[3,2-d]pyrimidin-4-yl)-1,2,3,4-tetrahydroisoquinolin-6-yl)pyridin-3-yl)acetic Acid]	0.1
Cc1ncc(-c2ccc3c(c2)CCN(c2ncnc4c2oc2ccccc24)C3)c(N2CCC(C)(C)CC2)c1[C@H](OC(C)(C)C)C(=O)O [Example 49, (2S)-2-(tert-Butoxy)-2-[4-(4,4-dimethylpiperidin-1-yl)-2-methyl-5-(2-{8-oxa-3,5-diazatricyclo[7.4.0.0^2,7]trideca-1(9),2(7),3,5,10,12-hexaen-6-yl}-1,2,3,4-tetrahydroisoquinolin-6-yl)pyridin-3-yl]acetic Acid]	1
Cc1nc(-c2cnn(C)c2C)c(-c2ccc3c(c2)CCN(c2ncnc4c2oc2ccccc24)C3)c(N2CCC(C)(C)CC2)c1[C@H](OC(C)(C)C)C(=O)O [Example 13, (S)-2-(5-(2-(Benzofuro[3,2-d]pyrimidin-4-yl)-1,2,3,4-tetrahydroisoquinolin-6-yl)-6-(1,5-dimethyl-1H-pyrazol-4-yl)-4-(4,4-dimethylpiperidin-1-yl)-2-methylpyridin-3-yl)-2-(tert-butoxy)acetic Acid]	2
Cc1nc(N2CCc3cc(-c4c(C)nc(C)c([C@H](OC(C)(C)C)C(=O)O)c4N4CCC(C)(C)CC4)ccc3C2)c2oc3ccccc3c2n1 [Example 128, (S)-2-(tert-Butoxy)-2-(4-(4,4-dimethylpiperidin-1-yl)-2,6-dimethyl-5-(2-(2-methylbenzofuro[3,2-d]pyrimidin-4-yl)-1,2,3,4-tetrahydroisoquinolin-6-yl)pyridin-3-yl)acetic Acid]	2
CC1(C)CCN(c2c(-c3ccc4c(c3)CCN(c3nccc(-c5cccnc5)n3)C4)c(N)nc(Cl)c2[C@H](OC(C)(C)C)C(=O)O)CC1 [Example 101, (S)-2-(6-Amino-2-chloro-4-(4,4-dimethylpiperidin-1-yl)-5-(2-(4-(pyridin-3-yl)pyrimidin-2-yl)-1,2,3,4-tetrahydroisoquinolin-6-yl)pyridin-3-yl)-2-(tert-butoxy)acetic Acid]	2
Cc1nc(CN2CCC3(CCC3)CC2)c(-c2ccc3c(c2)CCN(c2nccc(-c4cnccn4)n2)C3)c(N2CCC(C)(C)CC2)c1[C@H](OC(C)(C)C)C(=O)O [Example 166, (S)-2-(6-(7-Azaspiro[3.5]nonan-7-ylmethyl)-4-(4,4-dimethylpiperidin-1-yl)-2-methyl-5-(2-(4-(pyrazin-2-yl)pyrimidin-2-yl)-1,2,3,4-tetrahydroisoquinolin-6-yl)pyridin-3-yl)-2-(tert-butoxy)acetic Acid]	0.6
Cc1nc(CN2CCC3(CCC3)CC2)c(-c2ccc3c(c2)CCN(c2ncnc4c2oc2ccccc24)C3)c(N2CCC(C)(C)CC2)c1[C@H](OC(C)(C)C)C(=O)O [Example 159, (S)-2-(6-(7-Azaspiro[3.5]nonan-7-ylmethyl)-5-(2-(benzofuro[3,2-d]pyrimidin-4-yl)-1,2,3,4-tetrahydroisoquinolin-6-yl)-4-(4,4-dimethylpiperidin-1-yl)-2-methylpyridin-3-yl)-2-(tert-butoxy)acetic Acid]	1
Cc1ncc(-c2ccc3c(c2)CCN(c2ncnc4c2oc2ncccc24)C3)c(N2CCC(C)(C)CC2)c1[C@H](OC(C)(C)C)C(=O)O [Example 48, (2S)-2-(tert-Butoxy)-2-[4-(4,4-dimethylpiperidin-1-yl)-2-methyl-5-(2-{8-oxa-3,5,10-triazatricyclo[7.4.0.0^2,7]trideca-1(9),2,4,6,10,12-hexaen-6-yl}-1,2,3,4-tetrahydroisoquinolin-6-yl)pyridin-3-yl]acetic Acid]	0.6
Cc1nc(C)c([C@H](OC(C)(C)C)C(=O)O)c(N2CCC(C)(C)CC2)c1-c1ccc2c(c1)CCN(c1nccc(N3CCC(CCO)CC3)n1)C2 [Example 81, (S)-2-(tert-Butoxy)-2-(4-(4,4-dimethylpiperidin-1-yl)-5-(2-(4-(4-(2-hydroxyethyl)piperidin-1-yl)pyrimidin-2-yl)-1,2,3,4-tetrahydroisoquinolin-6-yl)-2,6-dimethylpyridin-3-yl)acetic Acid]	4
Cc1ccccc1-c1cccc(N2CCc3cc(-c4c(C)nc(C)c([C@H](OC(C)(C)C)C(=O)O)c4N4CCC(C)(C)CC4)ccc3C2)n1 [Example 88, (S)-2-(tert-Butoxy)-2-(4-(4,4-dimethylpiperidin-1-yl)-2,6-dimethyl-5-(2-(6-(o-tolyl)pyridin-2-yl)-1,2,3,4-tetrahydroisoquinolin-6-yl)pyridin-3-yl)acetic Acid]	25
Cc1cc(F)ccc1CN1CCc2cc(-c3cnc(Cl)c([C@H](OC(C)(C)C)C(=O)O)c3N3CCC(C)(C)CC3)ccc2C1 [Example 113, (S)-2-(tert-Butoxy)-2-(2-chloro-4-(4,4-dimethylpiperidin-1-yl)-5-(2-(4-fluoro-2-methylbenzyl)-1,2,3,4-tetrahydroisoquinolin-6-yl)pyridin-3-yl)acetic Acid]	3
CC1(C)CCN(c2c(-c3ccc4c(c3)CCN(c3ncnc5c3oc3ccccc35)C4)c(CNCC3CCOCC3)nc(Cl)c2[C@H](OC(C)(C)C)C(=O)O)CC1 [Example 111, (S)-2-(5-(2-(Benzofuro[3,2-d]pyrimidin-4-yl)-1,2,3,4-tetrahydroisoquinolin-6-yl)-2-chloro-4-(4,4-dimethylpiperidin-1-yl)-6-((((tetrahydro-2H-pyran-4-yl)methyl)amino)methyl)pyridin-3-yl)-2-(tert-butoxy)acetic Acid]	0.7
CCC(C)(C)O[C@H](C(=O)O)c1c(C)nc(C)c(-c2ccc3c(c2)CCN(Cc2ccccc2C)C3)c1N1CCC(C)(C)CC1 [Example 90, (S)-2-(4-(4,4-Dimethylpiperidin-1-yl)-2,6-dimethyl-5-(2-(2-methylbenzyl)-1,2,3,4-tetrahydroisoquinolin-6-yl)pyridin-3-yl)-2-(tert-pentyloxy)acetic Acid]	4
